Test results: ChEMBL document CHEMBL4011598, “Sulfonamides as Selective NaV1.7 Inhibitors: Optimizing Potency and Pharmacokinetics While Mitigating Metabolic Liabilities” (J Med Chem, 2017)

How the values were obtained:
[1] = target: Sodium channel protein type 5 subunit alpha (Homo sapiens, UniProt Q14524); test: Inhibition of human Nav1.5 expressed in HEK293 cells assessed as reduction in peak inward current by ionworks quattro electrophysiology assay; format: cell-based
[2] = Unbound fraction in rat plasma at 5 uM by LC-MS/MS method; format: ADME, cell-free
[3] = Unbound fraction in dog plasma at 5 uM by LC-MS/MS method; format: ADME, cell-free, Canis lupus familiaris
[4] = test system: Mus musculus; test: Toxicity in naive C57Bl/6 mouse assessed as effect on basic locomotor movement at 30 to 300 mg/kg, po measured after 4 hrs for 60 mins by open field test; format: organism-based; conditions: in vivo
[5] = Tmax in rat at 10 mg/kg, po; format: ADME, organism-based; conditions: in vivo
[6] = target: Cytochrome P450 2D6 (Homo sapiens, UniProt P10635); test: Inhibition of CYP2D6 (unknown origin); format: ADME
[7] = target: T1, Cytochrome P450 1A2 (Homo sapiens, UniProt P05177); test: Inhibition of CYP1A2 (unknown origin); format: ADME
T1 sequence (P05177 whole entry): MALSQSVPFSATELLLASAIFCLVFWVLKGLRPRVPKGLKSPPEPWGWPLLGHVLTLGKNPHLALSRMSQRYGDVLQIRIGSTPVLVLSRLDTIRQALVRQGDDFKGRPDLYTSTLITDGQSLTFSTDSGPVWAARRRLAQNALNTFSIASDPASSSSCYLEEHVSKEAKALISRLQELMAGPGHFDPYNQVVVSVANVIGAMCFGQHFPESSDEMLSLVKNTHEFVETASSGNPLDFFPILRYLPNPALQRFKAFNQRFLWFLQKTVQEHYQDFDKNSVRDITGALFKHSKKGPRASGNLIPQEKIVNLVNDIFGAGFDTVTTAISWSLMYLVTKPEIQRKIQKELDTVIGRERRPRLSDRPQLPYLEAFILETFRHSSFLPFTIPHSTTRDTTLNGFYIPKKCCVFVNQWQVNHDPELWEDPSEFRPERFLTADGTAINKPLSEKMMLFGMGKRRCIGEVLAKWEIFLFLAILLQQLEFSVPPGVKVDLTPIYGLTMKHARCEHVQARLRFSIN

[8] = target: Sodium channel protein type 9 subunit alpha (Homo sapiens, UniProt Q15858); test: Inhibition of human Nav1.7 at resting/closed state expressed in HEK293 cells at -140 mV holding potential by manual whole cell patch clamp electrophysiology assay; format: cell-based
Sequence of Sodium channel protein type 9 subunit alpha (Q15858 whole entry): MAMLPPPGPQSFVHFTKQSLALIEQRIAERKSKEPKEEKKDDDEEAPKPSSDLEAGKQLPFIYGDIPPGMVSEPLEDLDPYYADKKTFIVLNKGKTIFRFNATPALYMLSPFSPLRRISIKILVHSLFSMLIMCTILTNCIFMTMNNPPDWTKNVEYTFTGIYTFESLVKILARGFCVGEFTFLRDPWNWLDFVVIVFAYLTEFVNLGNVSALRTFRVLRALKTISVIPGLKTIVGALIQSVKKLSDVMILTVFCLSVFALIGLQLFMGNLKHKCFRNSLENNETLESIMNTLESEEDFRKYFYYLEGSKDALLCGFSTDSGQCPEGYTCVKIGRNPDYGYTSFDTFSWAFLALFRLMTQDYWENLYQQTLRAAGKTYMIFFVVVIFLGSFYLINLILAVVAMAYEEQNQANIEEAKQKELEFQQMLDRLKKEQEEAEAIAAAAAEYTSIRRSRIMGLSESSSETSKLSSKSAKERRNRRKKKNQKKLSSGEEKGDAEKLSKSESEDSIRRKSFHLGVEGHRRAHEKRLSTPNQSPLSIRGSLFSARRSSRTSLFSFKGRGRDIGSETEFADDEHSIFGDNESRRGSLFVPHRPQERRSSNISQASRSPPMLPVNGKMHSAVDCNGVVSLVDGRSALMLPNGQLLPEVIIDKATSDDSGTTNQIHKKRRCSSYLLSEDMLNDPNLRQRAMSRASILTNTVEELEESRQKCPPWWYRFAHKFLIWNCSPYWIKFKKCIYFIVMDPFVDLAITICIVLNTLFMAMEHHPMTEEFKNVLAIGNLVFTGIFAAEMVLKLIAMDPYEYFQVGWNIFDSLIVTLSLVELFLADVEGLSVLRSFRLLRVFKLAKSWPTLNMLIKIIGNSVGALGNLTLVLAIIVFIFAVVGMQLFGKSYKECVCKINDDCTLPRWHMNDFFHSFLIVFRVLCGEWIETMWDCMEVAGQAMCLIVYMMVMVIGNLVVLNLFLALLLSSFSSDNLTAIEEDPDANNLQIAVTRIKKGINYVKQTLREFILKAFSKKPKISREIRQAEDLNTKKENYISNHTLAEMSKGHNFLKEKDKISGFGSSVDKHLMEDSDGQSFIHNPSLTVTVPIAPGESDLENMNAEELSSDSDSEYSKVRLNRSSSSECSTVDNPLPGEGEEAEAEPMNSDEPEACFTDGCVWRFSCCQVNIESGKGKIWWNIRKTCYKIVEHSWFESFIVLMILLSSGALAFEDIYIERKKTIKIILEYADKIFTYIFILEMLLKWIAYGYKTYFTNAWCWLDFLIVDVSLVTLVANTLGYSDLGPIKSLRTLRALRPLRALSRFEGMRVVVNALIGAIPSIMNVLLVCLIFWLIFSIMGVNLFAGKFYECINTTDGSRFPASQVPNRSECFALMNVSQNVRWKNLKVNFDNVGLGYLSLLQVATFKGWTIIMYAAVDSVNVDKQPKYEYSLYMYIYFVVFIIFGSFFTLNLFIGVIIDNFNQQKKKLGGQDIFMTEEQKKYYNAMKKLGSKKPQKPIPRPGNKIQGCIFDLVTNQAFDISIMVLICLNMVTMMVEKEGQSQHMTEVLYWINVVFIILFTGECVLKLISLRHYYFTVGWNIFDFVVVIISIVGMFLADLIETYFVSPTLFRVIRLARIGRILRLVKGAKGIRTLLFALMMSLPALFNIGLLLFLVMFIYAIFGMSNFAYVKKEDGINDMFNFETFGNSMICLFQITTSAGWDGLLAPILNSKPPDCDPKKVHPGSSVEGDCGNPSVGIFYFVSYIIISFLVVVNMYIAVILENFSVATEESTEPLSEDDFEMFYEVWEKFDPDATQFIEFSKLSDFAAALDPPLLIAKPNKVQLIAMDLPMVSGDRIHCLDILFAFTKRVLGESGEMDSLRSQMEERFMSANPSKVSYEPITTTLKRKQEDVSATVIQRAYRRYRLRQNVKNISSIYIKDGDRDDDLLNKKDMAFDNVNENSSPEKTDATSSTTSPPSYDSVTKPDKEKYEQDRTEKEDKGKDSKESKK

Sequence of Cytochrome P450 2D6 (P10635 whole entry): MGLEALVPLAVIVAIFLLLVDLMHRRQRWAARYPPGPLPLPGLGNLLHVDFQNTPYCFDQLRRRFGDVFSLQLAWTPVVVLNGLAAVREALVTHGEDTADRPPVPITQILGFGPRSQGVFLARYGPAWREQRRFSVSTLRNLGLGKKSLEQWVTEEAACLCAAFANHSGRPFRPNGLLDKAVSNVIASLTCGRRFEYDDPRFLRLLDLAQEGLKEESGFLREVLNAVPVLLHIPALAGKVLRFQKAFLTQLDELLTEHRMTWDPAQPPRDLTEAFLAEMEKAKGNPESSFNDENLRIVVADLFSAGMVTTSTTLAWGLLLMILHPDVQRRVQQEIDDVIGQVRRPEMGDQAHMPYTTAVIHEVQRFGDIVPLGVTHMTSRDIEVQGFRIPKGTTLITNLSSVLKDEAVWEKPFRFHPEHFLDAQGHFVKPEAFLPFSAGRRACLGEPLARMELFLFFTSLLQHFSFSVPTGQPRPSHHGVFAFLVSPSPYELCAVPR
Sequence of Sodium channel protein type 5 subunit alpha (Q14524 whole entry): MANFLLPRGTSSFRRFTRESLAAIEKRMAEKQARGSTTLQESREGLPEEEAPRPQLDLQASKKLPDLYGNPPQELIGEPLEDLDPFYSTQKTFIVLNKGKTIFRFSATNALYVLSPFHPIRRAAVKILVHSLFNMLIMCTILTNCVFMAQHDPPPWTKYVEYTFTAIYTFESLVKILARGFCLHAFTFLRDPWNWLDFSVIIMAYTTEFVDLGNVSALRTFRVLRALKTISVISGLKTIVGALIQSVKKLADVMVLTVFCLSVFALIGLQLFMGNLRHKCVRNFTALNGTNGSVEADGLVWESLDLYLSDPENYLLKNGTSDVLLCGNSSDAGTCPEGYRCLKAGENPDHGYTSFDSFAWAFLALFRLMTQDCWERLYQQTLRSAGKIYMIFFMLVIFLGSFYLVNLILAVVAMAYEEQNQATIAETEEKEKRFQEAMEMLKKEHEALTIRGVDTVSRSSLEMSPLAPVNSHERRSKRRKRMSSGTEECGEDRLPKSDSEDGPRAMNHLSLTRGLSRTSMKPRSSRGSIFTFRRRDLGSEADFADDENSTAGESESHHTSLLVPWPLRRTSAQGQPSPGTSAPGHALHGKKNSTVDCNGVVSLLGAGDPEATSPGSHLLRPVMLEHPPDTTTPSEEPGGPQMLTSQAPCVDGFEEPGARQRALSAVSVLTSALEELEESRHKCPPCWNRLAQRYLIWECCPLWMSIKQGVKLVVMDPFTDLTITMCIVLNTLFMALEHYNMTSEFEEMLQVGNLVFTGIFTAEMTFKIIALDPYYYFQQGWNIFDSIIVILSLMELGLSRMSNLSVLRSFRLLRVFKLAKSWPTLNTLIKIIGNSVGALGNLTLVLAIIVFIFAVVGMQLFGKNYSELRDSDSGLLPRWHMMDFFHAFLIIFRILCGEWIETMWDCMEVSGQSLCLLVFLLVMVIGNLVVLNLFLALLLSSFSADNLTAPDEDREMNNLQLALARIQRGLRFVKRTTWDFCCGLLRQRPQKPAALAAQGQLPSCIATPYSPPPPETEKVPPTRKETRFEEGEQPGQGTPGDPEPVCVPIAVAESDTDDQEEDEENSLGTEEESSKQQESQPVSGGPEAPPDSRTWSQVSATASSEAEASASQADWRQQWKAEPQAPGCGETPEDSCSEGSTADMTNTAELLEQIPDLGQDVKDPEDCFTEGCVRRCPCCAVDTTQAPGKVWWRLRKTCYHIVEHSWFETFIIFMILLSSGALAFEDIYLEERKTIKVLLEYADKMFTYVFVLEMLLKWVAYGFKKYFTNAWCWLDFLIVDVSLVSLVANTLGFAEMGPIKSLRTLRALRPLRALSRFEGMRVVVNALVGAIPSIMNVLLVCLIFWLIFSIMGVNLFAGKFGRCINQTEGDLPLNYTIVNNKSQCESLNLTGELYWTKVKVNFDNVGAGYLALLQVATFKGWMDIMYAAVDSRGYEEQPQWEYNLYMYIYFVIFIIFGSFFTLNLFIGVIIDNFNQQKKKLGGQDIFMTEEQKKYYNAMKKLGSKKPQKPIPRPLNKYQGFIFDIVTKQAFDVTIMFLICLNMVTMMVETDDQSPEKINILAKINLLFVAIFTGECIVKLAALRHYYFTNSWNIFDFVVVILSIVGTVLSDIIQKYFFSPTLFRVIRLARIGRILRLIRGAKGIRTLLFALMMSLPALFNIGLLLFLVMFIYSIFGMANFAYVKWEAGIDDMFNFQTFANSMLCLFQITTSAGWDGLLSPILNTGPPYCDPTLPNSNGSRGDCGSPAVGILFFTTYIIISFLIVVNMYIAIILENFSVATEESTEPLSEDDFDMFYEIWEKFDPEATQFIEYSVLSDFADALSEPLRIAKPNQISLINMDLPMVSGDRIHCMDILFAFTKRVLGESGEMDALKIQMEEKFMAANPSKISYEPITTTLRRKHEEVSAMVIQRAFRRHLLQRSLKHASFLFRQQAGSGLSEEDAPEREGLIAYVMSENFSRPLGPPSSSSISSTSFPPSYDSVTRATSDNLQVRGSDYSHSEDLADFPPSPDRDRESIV

fraction unbound at 5 µM [2]: 0.0087 | fraction unbound at 5 µM [3]: 0.0066 | Tmax [5]: 6 h | IC50 [6]: > 15 µM | IC50 [7]: > 15 µM | IC50 [8]: 4 µM
Compound: COc1cc(-c2cccc(C(F)(F)F)c2)c(F)cc1-c1nccc2cc(S(=O)(=O)Nc3ccon3)ccc12
IC50 [1]: 12 µM | Activity [4]: Non-Toxic
